Series [1] addresses T1, Solute carrier family 22 member 2 (Homo sapiens, UniProt O15244).
T1 sequence (O15244 whole entry): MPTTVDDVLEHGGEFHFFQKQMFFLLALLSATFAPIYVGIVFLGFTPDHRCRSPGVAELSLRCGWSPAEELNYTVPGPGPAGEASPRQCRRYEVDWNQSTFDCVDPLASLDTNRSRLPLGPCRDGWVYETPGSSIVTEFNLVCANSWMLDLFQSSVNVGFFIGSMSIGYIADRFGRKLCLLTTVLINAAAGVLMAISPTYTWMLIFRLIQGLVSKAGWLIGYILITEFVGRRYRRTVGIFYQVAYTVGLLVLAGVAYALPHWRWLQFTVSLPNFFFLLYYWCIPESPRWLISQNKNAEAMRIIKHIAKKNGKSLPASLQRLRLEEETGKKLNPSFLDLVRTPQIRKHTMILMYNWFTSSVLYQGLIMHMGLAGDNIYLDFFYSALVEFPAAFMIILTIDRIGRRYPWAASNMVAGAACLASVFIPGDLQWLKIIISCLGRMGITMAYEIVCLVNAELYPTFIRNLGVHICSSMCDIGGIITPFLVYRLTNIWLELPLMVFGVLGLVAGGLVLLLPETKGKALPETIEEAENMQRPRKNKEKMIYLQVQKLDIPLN
The experiment in a line: Cellular uptake in human HEK293 cells assessed as human OCT2-mediated drug transport at 2.5 uM after 4 mins by LC-MS/MS analysis. Type of series: ADME, cell-based. The conditions noted are these: hek293, 4 min.

For a further series, the target named is T2, OCT2 (SLC22A2) (Homo sapiens, UniProt O15244).
T2 sequence (O15244 whole entry): T1 sequence (O15244 whole entry)
The experiment in a line: Cellular uptake in human HEK293 cells assessed as human OCT2-mediated drug transport at 2.5 uM after 4 mins by LC-MS/MS analysis relative to passive uptake. Type of series: ADME, cell-based. The conditions noted are these: HEK293 cells expressing human OCT2, read-out: FC.

The next series addresses T3, OCT1 (SLC22A1) (Homo sapiens, UniProt O15245).
T3 sequence (O15245 whole entry): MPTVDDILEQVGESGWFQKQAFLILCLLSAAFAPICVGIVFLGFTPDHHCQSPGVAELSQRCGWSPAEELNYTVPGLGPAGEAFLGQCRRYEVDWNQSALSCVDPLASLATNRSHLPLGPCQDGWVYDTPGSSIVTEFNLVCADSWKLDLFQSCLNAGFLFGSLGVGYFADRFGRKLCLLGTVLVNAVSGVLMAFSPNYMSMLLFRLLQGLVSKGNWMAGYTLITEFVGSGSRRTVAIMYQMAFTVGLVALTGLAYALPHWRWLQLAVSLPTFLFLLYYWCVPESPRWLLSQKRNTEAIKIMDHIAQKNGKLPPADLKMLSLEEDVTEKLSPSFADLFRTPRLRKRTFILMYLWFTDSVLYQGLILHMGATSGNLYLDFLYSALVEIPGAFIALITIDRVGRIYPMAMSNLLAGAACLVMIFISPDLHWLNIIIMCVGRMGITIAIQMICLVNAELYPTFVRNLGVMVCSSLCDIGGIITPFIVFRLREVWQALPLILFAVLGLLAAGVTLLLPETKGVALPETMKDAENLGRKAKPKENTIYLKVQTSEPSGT
The experiment in a line: Cellular uptake in human HEK293 cells assessed as human OCT1-mediated drug transport at 2.5 uM after 4 mins by LC-MS/MS analysis relative to passive uptake. Type of series: ADME, cell-based. The conditions noted are these: HEK293 cells expressing human OCT1, read-out: FC.

Series [2] deals with T4, Solute carrier family 22 member 1 (Homo sapiens, UniProt O15245).
T4 sequence (O15245 whole entry): T3 sequence (O15245 whole entry)
Nature of the series: Cellular uptake in human HEK293 cells assessed as human OCT1-mediated drug transport at 2.5 uM after 4 mins by LC-MS/MS analysis. The class given is ADME, cell-based. The conditions noted are these: hek293, 4 min.

Substrate in series [3]: CN/C(=N/CCSCc1nc[nH]c1C)NC#N
Nature of the series: cells, lysate or membranes named.

Substrate in series [4]: CC[N+](CC)(CC)CC
The experiment in a line: cells, lysate or membranes named.

The term Km denotes the substrate concentration at which the rate is half of its maximum.

For `NCCOc1ccccc1-c1nc(C(N)=O)c(NC(N)=O)s1`, the Drug uptake in series [1] is recorded as 40 pmol/mg; in series [2], 796 pmol/mg. Besides, the uptake ratio at 4 min, 2.5 µM at OCT2 (SLC22A2) amounted to 1.3; on OCT1 (SLC22A1), 13.
Turning to `O=C(NCCNCC(O)COc1ccc(O)cc1)N1CCOCC1` (centres undefined) [XAMOTEROL], the Drug uptake in series [1] is 5.2 pmol/mg; in series [2] it was 230 pmol/mg. Further, the results for the uptake ratio at 4 min, 2.5 µM at OCT2 (SLC22A2) and on OCT1 (SLC22A1) were 1.6 and 43, respectively.
`CCC(NC(C)C)C(O)c1ccc(O)c2[nH]c(=O)ccc12` (centres undefined) [PROCATEROL]: the figures for the Drug uptake in series [1] and in series [2] were 14 pmol/mg and 140 pmol/mg, respectively. In addition, the uptake ratio at 4 min, 2.5 µM on OCT2 (SLC22A2) was found to be 1.9; on OCT1 (SLC22A1), 11.
For the molecule `CC(C)(C)NCC(O)c1ccc(O)c(CO)c1` (centres undefined) [ALBUTEROL], the Drug uptake was found to be 270 pmol/mg in series [1] and 58 pmol/mg in series [2]. For the same molecule, the uptake ratio at 4 min, 2.5 µM worked out at 15 at OCT2 (SLC22A2) and 11 on OCT1 (SLC22A1).
The corresponding values for `CNS(=O)(=O)Cc1ccc2[nH]cc(CCN(C)C)c2c1` are 94 pmol/mg, 620 pmol/mg, 3.3 and 15.
The corresponding values for `NCCCOc1ccccc1-c1nc(C(N)=O)c(NC(N)=O)s1` are 23 pmol/mg, 739 pmol/mg, 1.5 and 14.
Regarding `C[N+]1(C)[C@@H]2C[C@@H](OC(=O)C(O)(c3cccs3)c3cccs3)C[C@H]1[C@@H]1O[C@@H]12` [TIOTROPIUM], the values for the Drug uptake in series [1] and in series [2] were 460 pmol/mg and 820 pmol/mg, respectively. Also, the results for the uptake ratio at 4 min, 2.5 µM on OCT2 (SLC22A2) and at OCT1 (SLC22A1) were 39 and 75, respectively.
The corresponding values for `NC(=O)Nc1sc(-c2ccccc2OC2CNC2)cc1C(N)=O` are 63 pmol/mg, 641 pmol/mg, 2.2 and 11.
With `C[N+]1(C)CCC(Oc2ccccc2-c2cc(C(N)=O)c(NC(N)=O)s2)C1` (racemic), the Drug uptake in series [1] was determined as 46 pmol/mg; in series [2], 903 pmol/mg. The uptake ratio at 4 min, 2.5 µM at OCT2 (SLC22A2) worked out at 4.3; on OCT1 (SLC22A1), 53.
For the molecule `CN/C(=N/CCSCc1nc[nH]c1C)NC#N` [CIMETIDINE], the Drug uptake in series [1] came to 270 pmol/mg; in series [2] it was 65 pmol/mg. The uptake ratio at 4 min, 2.5 µM was determined as 15 on OCT2 (SLC22A2) and 6.5 on OCT1 (SLC22A1).
On to `N#Cc1ccc(OC2CCNC2)c(-c2cc(C(N)=O)c(NC(N)=O)s2)c1` (racemic), for which the Drug uptake in series [1] was found to be 22 pmol/mg; in series [2] it was 1653 pmol/mg. Also, the uptake ratio at 4 min, 2.5 µM at OCT2 (SLC22A2) turned out to be 1.6; at OCT1 (SLC22A1), 39.
Consider `CNC(=C[N+](=O)[O-])NCCSCc1ccc(CN(C)C)o1` [RANITIDINE], for which the figures for the Drug uptake in series [1] and in series [2] were 22 pmol/mg and 600 pmol/mg, respectively. In addition, the uptake ratio at 4 min, 2.5 µM at OCT2 (SLC22A2) turned out to be 1.6; on OCT1 (SLC22A1) it was 18.
As for `NC(=O)Nc1sc(-c2ccccc2OC2CCNCC2)cc1C(N)=O`, the Drug uptake in series [1] was found to be 35 pmol/mg; in series [2], 821 pmol/mg. Moreover, the uptake ratio at 4 min, 2.5 µM was 1.8 at OCT2 (SLC22A2) and 17 at OCT1 (SLC22A1).
Consider `CN(C)C(=N)N=C(N)N` [METFORMIN], for which the Drug uptake in series [1] is on record as 110 pmol/mg; in series [2], 5.4 pmol/mg.
On to `NC(=O)Nc1sc(-c2ccccc2O[C@H]2CCNC2)cc1C(N)=O`, for which the Drug uptake in series [1] amounted to 37 pmol/mg; in series [2], 1047 pmol/mg. The figures for the uptake ratio at 4 min, 2.5 µM at OCT2 (SLC22A2) and on OCT1 (SLC22A1) were 1.9 and 26, respectively.
`NC(=O)Nc1sc(-c2ccccc2O[C@@H]2CCNC2)cc1C(N)=O`: the Drug uptake in series [1] worked out at 6.6 pmol/mg; in series [2], 586 pmol/mg. In addition, the uptake ratio at 4 min, 2.5 µM stood at 1.1 on OCT2 (SLC22A2) and 15 on OCT1 (SLC22A1).
Turning to `NC(=O)Nc1sc(-c2ccc(OC3CCNC3)cc2)cc1C(N)=O` (racemic), the Drug uptake in series [1] worked out at 8.5 pmol/mg; in series [2], 1493 pmol/mg. For the same molecule, the uptake ratio at 4 min, 2.5 µM turned out to be 1.4 at OCT2 (SLC22A2) and 73 at OCT1 (SLC22A1).
Consider `CC[N+](C)(CC)CCOC(=O)C(O)(c1ccccc1)C1CCCCC1` (centres undefined) [OXYPHENONIUM], for which the values for the Drug uptake in series [1] and in series [2] were 230 pmol/mg and 640 pmol/mg, respectively. For the same molecule, the uptake ratio at 4 min, 2.5 µM at OCT2 (SLC22A2) stood at 14; at OCT1 (SLC22A1) it was 25.
In the case of `N=C(N)NC(=O)c1nc(Cl)c(N)nc1N` [AMILORIDE], the Drug uptake in series [1] stood at 1660 pmol/mg; in series [2] it was 1430 pmol/mg. The uptake ratio at 4 min, 2.5 µM at OCT2 (SLC22A2) turned out to be 74; at OCT1 (SLC22A1), 76.
As to `[H]/N=C(/N)N/C(=N/[H])NCCc1ccccc1` [PHENFORMIN], the Drug uptake was determined as 450 pmol/mg in series [1] and 570 pmol/mg in series [2]. In addition, the uptake ratio at 4 min, 2.5 µM on OCT2 (SLC22A2) is above 35; on OCT1 (SLC22A1), above 39.
In the case of `NC(=O)Nc1sc(-c2cccc(OC3CCNC3)c2)cc1C(N)=O` (racemic), the Drug uptake in series [1] stood at 21 pmol/mg; in series [2] it was 1352 pmol/mg. The uptake ratio at 4 min, 2.5 µM on OCT2 (SLC22A2) stood at 1.6; at OCT1 (SLC22A1), 68.

B1: Solute carrier family 22 member 2 (Homo sapiens) (protein)
chain: T1 sequence (O15244 whole entry)
Take B1: in series [3], the Km was 60 µM.

B2: Solute carrier family 22 member 1 (Homo sapiens) (protein)
chain: T3 sequence (O15245 whole entry)
Regarding B2, in series [4], the Michaelis-Menten constant (Km) amounted to 140 µM.

The record behind these values is ChEMBL document CHEMBL2424515, “Identification of novel substrates and structure-activity relationship of cellular uptake mediated by human organic cation transporters 1 and 2” (J Med Chem, 2013).
